Measurements reported in ChEMBL document CHEMBL1201862, “PubChem BioAssay data set” (2004).
Calls of active or inactive are those of the source.

Legend:
[1] = Trypanosoma cruzi growth suppression in host cells – NIH3T3 host cells, beta-gal luminescence, confirmation (AID 2044); assay type: functional, cell-based;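 also: intracellular parasites grown in NIH/3T3 mouse fibroblasts as host cells; luminescent beta-galactosidase reporter signal from transgenic T. cruzi replicating inside host cells; inhibitors lower the luminescence signal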
[2] = NIH3T3 cell viability loss – ATP luminescence, mouse fibroblasts, counter-screen, dose response (AID 2010); assay type: functional, cell-based;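 also: cells exposed to compound for about 90 hours before reading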
[3] = THP-1 cell cytotoxicity, dose response, cytotoxicity control for non-replicating M. tuberculosis project (AID 489025); assay type: functional
[4] = HepG2 cell cytotoxicity, dose response, cytotoxicity control for non-replicating M. tuberculosis project (AID 489018); assay type: functional; conditions: Mycobacterium tuberculosis
[5] = Vero E6 cell cytotoxicity, dose response, cytotoxicity control for non-replicating M. tuberculosis project, secondary assay (AID 492998); assay type: functional, VeroE6; conditions: Vero C1008
cells = assay type: functional
INS1 = assay: INS-1E survival protection against cytokine death – cell-based, luminescence, retest, dose response (AID 449756); assay type: functional; conditions: Rattus norvegicus;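 also: cell death triggered by IL-1 beta plus TNF-alpha plus IFN-gamma mixture; protective hits raise ATP signal compared with cytokine alone wells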
[6] = biological target: T1, DNA dC->dU-editing enzyme APOBEC-3A (Homo sapiens, UniProt P31941); assay: A3A deaminase inhibition for selectivity – biochemical, dose response (AID 504722); assay type: functional
T1 sequence (P31941 whole entry): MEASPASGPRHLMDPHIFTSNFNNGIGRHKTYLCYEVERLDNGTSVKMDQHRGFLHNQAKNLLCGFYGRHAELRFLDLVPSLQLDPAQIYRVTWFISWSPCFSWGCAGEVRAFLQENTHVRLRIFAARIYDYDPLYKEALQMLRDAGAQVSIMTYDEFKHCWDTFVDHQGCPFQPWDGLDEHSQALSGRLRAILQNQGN

[7] = biological target: T2, DNA dC->dU-editing enzyme APOBEC-3G (Homo sapiens, UniProt Q9HC16); assay: Dose Response confirmation of small molecule APOBEC3G DNA Deaminase Inhibitors via a fluorescence-based single-stranded DNA deaminase assay. [Related pubchem assays (depositor defined):AID493012, AID493028]; assay type: functional
T2 sequence (Q9HC16 whole entry): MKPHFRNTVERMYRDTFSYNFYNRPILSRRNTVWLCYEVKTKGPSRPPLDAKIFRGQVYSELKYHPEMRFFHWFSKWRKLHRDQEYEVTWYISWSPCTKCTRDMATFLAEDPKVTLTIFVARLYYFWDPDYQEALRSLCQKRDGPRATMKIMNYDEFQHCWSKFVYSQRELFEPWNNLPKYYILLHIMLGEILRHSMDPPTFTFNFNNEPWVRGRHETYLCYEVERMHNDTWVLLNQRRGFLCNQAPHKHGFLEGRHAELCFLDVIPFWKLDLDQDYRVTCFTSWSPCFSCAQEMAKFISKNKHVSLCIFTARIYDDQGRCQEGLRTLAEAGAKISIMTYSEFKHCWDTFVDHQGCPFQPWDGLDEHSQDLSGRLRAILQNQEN

[8] = biological target: T3, Rac GTPase-activating protein 1 (Homo sapiens, UniProt Q9H0H5); assay: blockers of MgcRacGAP-driven Rac1 GTP hydrolysis – biochemical, ADP Hunter fluorescence, primary and confirmatory, confirmation (AID 624330); assay type: functional
T3 sequence (Q9H0H5 whole entry): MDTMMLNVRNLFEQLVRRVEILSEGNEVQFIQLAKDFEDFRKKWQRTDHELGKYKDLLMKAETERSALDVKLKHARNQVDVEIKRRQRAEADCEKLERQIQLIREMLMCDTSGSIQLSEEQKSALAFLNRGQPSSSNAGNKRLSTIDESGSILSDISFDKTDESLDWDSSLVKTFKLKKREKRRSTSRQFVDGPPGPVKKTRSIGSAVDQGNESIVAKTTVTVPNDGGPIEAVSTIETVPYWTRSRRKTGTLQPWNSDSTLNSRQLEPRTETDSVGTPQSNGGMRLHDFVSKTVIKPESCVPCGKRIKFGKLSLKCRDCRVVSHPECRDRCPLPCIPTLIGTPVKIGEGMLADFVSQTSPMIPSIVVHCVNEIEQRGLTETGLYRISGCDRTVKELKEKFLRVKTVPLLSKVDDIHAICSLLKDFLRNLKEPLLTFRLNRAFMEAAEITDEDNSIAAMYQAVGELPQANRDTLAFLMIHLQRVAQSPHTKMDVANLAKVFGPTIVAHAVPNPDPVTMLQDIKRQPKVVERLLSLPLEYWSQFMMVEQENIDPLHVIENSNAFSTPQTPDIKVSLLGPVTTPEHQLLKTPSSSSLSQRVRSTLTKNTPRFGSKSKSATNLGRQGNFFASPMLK

Aminopeptidase N = biological target: T4, Aminopeptidase N (Plasmodium falciparum FcB1/Columbia, UniProt O96935); assay: malaria alanyl aminopeptidase activity blockers – biochemical, fluorogenic H-Leu-NHMec substrate, 1536-well (AID 1445); set-up: species or system Plasmodium falciparum 3D7, 3D7
T4 sequence (O96935 whole entry): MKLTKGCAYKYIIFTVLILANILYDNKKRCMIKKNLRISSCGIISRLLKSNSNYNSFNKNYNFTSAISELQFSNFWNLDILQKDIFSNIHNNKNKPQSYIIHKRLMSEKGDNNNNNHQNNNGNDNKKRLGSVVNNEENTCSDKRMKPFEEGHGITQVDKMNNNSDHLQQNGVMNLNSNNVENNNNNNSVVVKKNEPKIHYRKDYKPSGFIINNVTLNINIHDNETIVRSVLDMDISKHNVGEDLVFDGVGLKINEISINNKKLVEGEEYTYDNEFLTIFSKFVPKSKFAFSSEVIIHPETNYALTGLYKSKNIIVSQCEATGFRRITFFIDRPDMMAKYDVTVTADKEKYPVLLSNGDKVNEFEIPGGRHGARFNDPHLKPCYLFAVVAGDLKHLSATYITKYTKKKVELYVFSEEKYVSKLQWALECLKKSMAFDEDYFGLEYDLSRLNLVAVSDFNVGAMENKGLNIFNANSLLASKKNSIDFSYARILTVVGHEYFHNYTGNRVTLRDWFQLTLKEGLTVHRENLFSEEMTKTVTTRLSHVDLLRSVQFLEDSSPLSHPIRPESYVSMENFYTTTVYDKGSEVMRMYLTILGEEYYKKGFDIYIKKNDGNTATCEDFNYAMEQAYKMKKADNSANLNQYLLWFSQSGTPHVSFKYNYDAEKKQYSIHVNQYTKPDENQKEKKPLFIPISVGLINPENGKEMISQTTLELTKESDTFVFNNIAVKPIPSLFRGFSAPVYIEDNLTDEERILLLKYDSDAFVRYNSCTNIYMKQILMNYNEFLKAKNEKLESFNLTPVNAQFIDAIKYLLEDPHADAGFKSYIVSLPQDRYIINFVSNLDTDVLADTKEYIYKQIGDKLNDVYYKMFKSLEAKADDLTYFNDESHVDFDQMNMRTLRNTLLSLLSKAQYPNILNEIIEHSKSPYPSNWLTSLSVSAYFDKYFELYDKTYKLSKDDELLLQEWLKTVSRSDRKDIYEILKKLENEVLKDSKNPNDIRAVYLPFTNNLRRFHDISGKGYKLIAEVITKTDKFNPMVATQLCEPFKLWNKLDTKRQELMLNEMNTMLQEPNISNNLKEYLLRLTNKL

[9] = biological target: T5, RNA-binding protein pos-1 (Caenorhabditis elegans, UniProt G5EF15); assay: disruptors of C. elegans POS-1 RNA interaction – biochemical, fluorescence polarization, dose response (AID 1964);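 also: purified POS-1 fused to maltose binding protein made in E. coli; potency of compounds blocking POS-1 binding to fluorescent RNA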
T5 sequence (G5EF15 whole entry): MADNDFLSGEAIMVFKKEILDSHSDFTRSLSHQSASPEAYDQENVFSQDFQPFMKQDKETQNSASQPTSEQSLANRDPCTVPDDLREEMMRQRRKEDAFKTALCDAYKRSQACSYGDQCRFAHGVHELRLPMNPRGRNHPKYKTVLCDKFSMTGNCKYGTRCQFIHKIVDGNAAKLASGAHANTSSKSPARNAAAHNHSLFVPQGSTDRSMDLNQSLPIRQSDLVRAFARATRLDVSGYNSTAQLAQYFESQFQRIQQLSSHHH

[10] = biological target: T6, Zinc finger protein mex-5 (Caenorhabditis elegans, UniProt Q9XUB2); assay: potency of MEX-5 RNA-binding blockers – biochemical, C. elegans, fluorescence polarization, dose response (AID 1960)
T6 sequence (Q9XUB2 whole entry): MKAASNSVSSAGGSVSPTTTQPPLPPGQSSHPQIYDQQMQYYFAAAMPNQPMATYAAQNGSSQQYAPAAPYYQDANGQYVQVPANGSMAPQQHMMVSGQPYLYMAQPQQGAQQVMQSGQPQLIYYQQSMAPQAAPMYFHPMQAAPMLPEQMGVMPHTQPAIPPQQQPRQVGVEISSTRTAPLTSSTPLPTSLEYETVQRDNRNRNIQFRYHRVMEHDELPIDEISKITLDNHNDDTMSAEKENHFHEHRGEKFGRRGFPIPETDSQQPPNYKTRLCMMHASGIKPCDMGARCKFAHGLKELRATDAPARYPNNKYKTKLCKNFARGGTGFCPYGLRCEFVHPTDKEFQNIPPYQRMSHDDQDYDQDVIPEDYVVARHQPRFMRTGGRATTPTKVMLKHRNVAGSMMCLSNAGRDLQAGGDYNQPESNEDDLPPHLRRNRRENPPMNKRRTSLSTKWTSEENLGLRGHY

Large T antigen = Large T antigen (Simian virus 40, UniProt P03070); assay type: functional, Betapolyomavirus macacae;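 also: Confirmatory-stage PubChem screen for compounds that inhibit SV40 T antigen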
Sequence of Large T antigen (P03070 whole entry): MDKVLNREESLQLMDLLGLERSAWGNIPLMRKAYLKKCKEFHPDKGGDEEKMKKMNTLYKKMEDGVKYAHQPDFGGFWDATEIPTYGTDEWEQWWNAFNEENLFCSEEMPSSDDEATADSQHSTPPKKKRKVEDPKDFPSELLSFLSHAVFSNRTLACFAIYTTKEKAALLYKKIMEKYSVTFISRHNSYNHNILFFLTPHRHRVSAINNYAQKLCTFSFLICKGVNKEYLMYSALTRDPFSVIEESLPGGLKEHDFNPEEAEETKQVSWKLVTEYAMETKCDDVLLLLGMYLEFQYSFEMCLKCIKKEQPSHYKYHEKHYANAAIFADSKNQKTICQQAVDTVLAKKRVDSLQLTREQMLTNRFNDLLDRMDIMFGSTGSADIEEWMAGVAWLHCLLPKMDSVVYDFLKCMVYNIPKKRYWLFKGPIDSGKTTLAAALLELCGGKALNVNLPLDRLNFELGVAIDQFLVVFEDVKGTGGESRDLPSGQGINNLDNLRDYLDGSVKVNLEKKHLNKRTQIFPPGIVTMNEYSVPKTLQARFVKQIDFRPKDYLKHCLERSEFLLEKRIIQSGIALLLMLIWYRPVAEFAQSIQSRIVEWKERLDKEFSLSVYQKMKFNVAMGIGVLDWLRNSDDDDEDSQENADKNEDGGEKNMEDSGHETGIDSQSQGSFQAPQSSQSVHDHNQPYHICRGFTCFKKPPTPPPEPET

[11] = biological target: Induced myeloid leukemia cell differentiation protein Mcl-1 (Homo sapiens, UniProt Q07820); assay type: functional
Sequence of Induced myeloid leukemia cell differentiation protein Mcl-1 (Q07820 whole entry): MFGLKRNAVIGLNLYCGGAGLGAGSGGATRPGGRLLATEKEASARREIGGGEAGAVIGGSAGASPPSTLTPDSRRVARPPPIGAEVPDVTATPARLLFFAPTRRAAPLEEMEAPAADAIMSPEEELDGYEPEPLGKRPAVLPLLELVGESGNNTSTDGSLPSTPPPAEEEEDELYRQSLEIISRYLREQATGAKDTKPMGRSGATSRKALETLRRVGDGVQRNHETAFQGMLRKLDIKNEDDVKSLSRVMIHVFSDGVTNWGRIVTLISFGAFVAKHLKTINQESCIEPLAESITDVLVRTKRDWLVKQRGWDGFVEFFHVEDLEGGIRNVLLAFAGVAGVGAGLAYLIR

[12] = biological target: Neurotensin receptor type 1 (Homo sapiens, UniProt P30989); assay type: functional;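 also: Image-based confirmatory dose-response assay measuring agonist activity at NTR1; NTR1-expressing U2OS osteosarcoma cells imaged for beta-arrestin GFP spot formation; agonist potency where compounds increase beta-arrestin recruitment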
Sequence of Neurotensin receptor type 1 (P30989 whole entry): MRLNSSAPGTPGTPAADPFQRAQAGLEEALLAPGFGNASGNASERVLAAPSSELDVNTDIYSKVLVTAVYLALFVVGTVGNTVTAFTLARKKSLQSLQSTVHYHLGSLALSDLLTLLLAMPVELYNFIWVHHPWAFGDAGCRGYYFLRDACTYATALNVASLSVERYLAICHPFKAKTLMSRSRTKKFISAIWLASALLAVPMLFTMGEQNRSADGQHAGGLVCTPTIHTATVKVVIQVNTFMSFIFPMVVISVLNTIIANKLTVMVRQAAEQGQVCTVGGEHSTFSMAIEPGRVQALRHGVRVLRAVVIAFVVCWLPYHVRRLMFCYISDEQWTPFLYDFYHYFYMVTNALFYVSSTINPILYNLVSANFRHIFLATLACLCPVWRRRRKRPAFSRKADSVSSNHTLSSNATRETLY

[13] = biological target: T7, Microphthalmia-associated transcription factor (Homo sapiens, UniProt O75030); assay: reducers of TRPM1 reporter luminescence, concentration series – cell-based, SK-MEL-5, cherry-picked, set 3, MITF inhibitor project, dose response (AID 493073); assay type: functional;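 also: SK-MEL-5 melanoma cells with luciferase driven by the MITF target TRPM1 promoter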
T7 sequence (O75030 whole entry): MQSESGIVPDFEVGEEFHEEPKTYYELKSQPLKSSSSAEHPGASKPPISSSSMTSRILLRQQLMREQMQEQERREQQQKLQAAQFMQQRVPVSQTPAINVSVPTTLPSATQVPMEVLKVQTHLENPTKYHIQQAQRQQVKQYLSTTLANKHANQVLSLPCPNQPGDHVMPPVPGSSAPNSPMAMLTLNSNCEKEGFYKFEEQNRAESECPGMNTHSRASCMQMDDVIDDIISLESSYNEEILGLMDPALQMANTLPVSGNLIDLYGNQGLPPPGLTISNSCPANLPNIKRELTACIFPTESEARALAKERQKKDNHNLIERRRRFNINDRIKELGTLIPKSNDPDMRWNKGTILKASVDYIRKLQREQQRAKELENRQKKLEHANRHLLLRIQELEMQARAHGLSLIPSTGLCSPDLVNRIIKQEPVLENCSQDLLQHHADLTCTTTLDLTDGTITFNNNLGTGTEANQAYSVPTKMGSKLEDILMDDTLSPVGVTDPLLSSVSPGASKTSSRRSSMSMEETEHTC

[14] = test system: Streptococcus sp. 'group A'; assay: Streptococcus pyogenes SK(-)GAS viability under kanamycin – luminescence, BacTiterGlo, confirmation, counter-screen for streptokinase expression inhibitor project, dose response (AID 1900); assay type: functional, organism-based
Streptokinase A = biological target: T8, Streptokinase A (Streptococcus pyogenes serotype M1, UniProt P10520); assay: viability-normalized secreted streptokinase activity reduction – plasminogen activation absorbance, OD405, dose response (AID 1914); assay type: functional, Streptococcus pyogenes M1 GAS;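 also: secreted streptokinase activity via plasminogen activation per viability signal from cell pellet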
T8 sequence (P10520 whole entry): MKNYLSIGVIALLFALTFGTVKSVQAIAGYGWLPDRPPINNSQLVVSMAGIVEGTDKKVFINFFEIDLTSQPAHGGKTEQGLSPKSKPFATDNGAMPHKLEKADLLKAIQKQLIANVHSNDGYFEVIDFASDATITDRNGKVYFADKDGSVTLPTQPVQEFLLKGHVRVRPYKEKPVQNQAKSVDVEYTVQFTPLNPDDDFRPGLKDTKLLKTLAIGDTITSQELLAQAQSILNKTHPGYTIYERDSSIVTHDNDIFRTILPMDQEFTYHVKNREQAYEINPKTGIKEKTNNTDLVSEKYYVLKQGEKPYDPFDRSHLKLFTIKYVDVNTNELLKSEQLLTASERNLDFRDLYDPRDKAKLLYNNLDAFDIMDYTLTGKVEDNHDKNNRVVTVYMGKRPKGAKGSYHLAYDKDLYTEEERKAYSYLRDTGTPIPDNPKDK

[15] = biological target: T9, Kappa-type opioid receptor (Homo sapiens, UniProt P41145); assay type: functional
T9 sequence (P41145 whole entry): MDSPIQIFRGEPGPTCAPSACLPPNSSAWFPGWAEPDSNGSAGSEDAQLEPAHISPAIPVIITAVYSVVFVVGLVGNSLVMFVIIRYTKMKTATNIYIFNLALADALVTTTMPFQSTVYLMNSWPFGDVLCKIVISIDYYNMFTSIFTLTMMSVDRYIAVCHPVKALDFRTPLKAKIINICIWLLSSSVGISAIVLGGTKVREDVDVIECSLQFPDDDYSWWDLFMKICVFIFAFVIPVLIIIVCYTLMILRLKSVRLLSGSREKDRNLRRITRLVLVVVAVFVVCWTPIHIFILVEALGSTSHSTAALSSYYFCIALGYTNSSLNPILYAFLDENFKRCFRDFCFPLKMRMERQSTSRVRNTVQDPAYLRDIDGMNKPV

Beta-galactosidase = Beta-galactosidase (Escherichia coli, UniProt Q8VNN2); assay type: functional
Sequence of Beta-galactosidase (Q8VNN2 whole entry): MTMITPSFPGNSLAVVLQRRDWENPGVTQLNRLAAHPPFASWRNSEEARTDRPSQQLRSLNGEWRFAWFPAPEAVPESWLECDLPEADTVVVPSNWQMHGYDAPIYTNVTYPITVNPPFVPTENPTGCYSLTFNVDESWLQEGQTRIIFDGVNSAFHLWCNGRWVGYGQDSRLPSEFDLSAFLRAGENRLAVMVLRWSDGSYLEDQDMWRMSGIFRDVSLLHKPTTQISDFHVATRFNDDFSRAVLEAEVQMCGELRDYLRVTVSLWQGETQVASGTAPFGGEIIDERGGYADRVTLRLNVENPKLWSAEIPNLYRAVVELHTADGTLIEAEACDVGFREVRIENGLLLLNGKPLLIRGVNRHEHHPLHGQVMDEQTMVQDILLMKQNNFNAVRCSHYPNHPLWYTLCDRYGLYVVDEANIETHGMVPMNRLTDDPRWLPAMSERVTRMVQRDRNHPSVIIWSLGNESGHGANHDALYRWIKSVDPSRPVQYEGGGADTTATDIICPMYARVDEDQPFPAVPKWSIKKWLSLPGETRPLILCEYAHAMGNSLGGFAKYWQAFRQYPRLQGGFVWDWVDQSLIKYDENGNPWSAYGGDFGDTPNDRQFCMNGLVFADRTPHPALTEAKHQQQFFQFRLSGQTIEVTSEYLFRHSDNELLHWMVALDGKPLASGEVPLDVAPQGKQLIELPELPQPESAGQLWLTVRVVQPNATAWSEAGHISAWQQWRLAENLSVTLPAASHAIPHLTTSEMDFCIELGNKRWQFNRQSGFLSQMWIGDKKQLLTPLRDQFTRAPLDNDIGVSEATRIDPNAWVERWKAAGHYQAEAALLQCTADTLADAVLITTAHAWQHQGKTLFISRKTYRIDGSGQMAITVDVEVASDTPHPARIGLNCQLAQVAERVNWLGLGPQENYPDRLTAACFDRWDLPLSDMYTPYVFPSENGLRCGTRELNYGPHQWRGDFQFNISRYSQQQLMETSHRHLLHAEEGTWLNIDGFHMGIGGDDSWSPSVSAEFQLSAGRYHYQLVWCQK

[16] = biological target: T9, Kappa-type opioid receptor; assay type: functional; remark: listed apart in the source
Streptococcus = assay: GAS UMAA2166 growth inhibition – luminescence, BacTiterGlo, counter-screen for streptokinase expression inhibitor project, dose response (AID 1915); assay type: functional, organism-based;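 also: potency for reduction of bacterial viability or growth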
[17] = biological target: Heat shock protein HSP 90-alpha (Homo sapiens, UniProt P07900); assay type: functional, organism-based
[18] = biological target: T1, DNA dC->dU-editing enzyme APOBEC-3A; assay: Dose Response confirmation of small molecule APOBEC3A DNA Deaminase Inhibitors via a fluorescence-based single-stranded DNA deaminase assay. [Related pubchem assays (depositor defined):AID493011, AID493024]; assay type: functional
[19] = biological target: T2, DNA dC->dU-editing enzyme APOBEC-3G; assay type: functional

O=C(Cc1cccs1)N/N=C\c1ccc([N+](=O)[O-])s1
EC50 [1]: 0.36 µM (active) | EC50 [2]: 17.5 µM (active) | CC50 [3]: 15.3 µM (active) | CC50 [4]: 17.7 µM (active) | CC50 [5]: 11.5 µM (active) | IC50 (cells): 9.65 µM (active) | AC50 (INS1): 6.28 µM (active)

Cc1cccc(-c2nnc(S)n2/N=C/c2ccco2)c1
IC50 [6]: > 100 µM (inactive) | IC50 [7]: 2.1 µM (active) | IC50 [8]: 89.6 µM (active)

Nc1cc(C(=O)O)c(N)c2c1C(=O)c1ccccc1C2=O
IC50 (Aminopeptidase N): 58.9 µM (active) | EC50 [9]: 4.27 µM (active) | EC50 [10]: 2.39 µM (active) | IC50 (Large T antigen): 21.9 µM (active) | IC50 [11]: 3.71 µM (active)

CCOC(=O)/C=c1\s/c(=C\c2ccc3cc(OC)ccc3c2)c(=O)n1CC(=O)NCC1CCCO1 (stereo not drawn)
EC50 [9]: 90.4 µM (active) | EC50 [10]: > 300 µM (not active) | EC50 [12]: 7.15 µM (active) | AC50 [13]: 5.73 µM (active)

Sc1nnc(-c2ccco2)n1/N=C/c1c(Cl)cccc1Cl
IC50 [6]: > 100 µM (inactive) | IC50 [7]: 5.03 µM (active)

Cc1[nH]c(N=Nc2ccccc2)nc1N=Nc1ccccc1
EC50 [14]: 3.49 µM (active) | EC50 (Streptokinase A): 23.4 µM (active) | EC50 [1]: 1.12 µM (active) | IC50 [15]: 8.4 µM (active) | EC50 [2]: 4.45 µM (active) | EC50 (Beta-galactosidase): 17.4 µM (active) | IC50 [16]: > 32 µM | EC50 (Streptococcus): > 50 µM (not active) | AC50 [17]: 3.76 µM (active) | AC50 (INS1): 3.72 µM (active)

C=CCNC(=O)c1ccccc1NC(=O)C1CCN(S(=O)(=O)c2ccc(SC)cc2)CC1
IC50 [18]: 5.28 µM (active) | IC50 [19]: 6.15 µM (active)
